# Columns and labels:
# Male Sprague Dawley rats [1] = test: Reversal of Icilin-Induced Behaviors in Rats; assay type: in vivo; details: Rattus norvegicus, po, 1 h, 30 mg/kg p.o., 1 h post-icilin
# Experimental: Male Sprague Dawley rats (225-450 g, Charles River Labs, n=4-6/treatment) were used to evaluate the ability of selected compounds of the formula (I) to reverse icilin-induced “wet-dog” shakes. Icilin was administered in PEG-400 or 10% solutol/H2O, at 1.0 or 3.0 mg/kg, i.p. and spontaneous “wet-dog” shakes (WDS) were counted 10-20 minutes post-icilin. […] Results are presented as a percent inhibition of shakes, which was calculated as [1-(test compound WDS count/vehicle WDS count)]×100.
# canine TRPM8 [2] = target: T1, canine TRPM8 (Canis lupus familiaris, UniProt Q1A7N1); test: In Vitro Canine TRPM8 Functional Assay (Ca2+ fluorescence, icilin activation); assay type: cell-based; details: for IC50: HEK293 cells stably expressing canine TRPM8, icilin activation, eight-point dose-response, read-out: IC50; for inhibition at 0.5 µM: compound at 0.5 μM, read-out: % Inh @ 0.5; for inhibition at 0.5 µM / inhibition at 0.2 µM / % Inh @ 0.2 (μM): canine TRPM8, icilin activation; for inhibition at 0.2 µM / % Inh @ 0.2 (μM): compound at 0.2 μM; for inhibition at 0.2 µM: read-out: % Inh @ 0.2
# How it was run: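 HEK293 cells stably expressing canine TRPM8 were loaded with Calcium 3 dye (35 min at 37 °C, then 25 min at room temperature). Compound was added and Ca2+ fluorescence was read for 5 min before icilin at a concentration giving about 80% maximal response. EC50/IC50 came from eight-point dose-response curves, quadruplicate wells.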
# Male Sprague Dawley rats [3] = test: Chronic Constriction Injury (CCI)-Induced Model of Neuropathic Pain, Acetone-Induced Hypersensitivity; assay type: in vivo, rat; details: Na salt form; for inhibition in vivo at 30 mg/kg / Percent Inhibition: 30 mg/kg p.o.
# Source text: Male Sprague Dawley rats (225-450 g; n=5-8/treatment) were used to evaluate the ability of selected compounds of the formula (I) to reverse CCI-induced cold hypersensitivity. Four loose ligatures of 4-0 chromic gut were surgically placed around the left sciatic nerve under inhalation anesthesia as described by Bennett et al (Bennett G J, Xie Y K. Pain 1988, 33(1): 87-107). Fourteen to 35 days following CCI surgery, subjects were placed in elevated observation chambers containing wire mesh floors and five applications of acetone (0.05 mL/application separated by approximately 5 minutes) were spritzed onto the plantar surface of the paw using a multidose syringe. An abrupt withdrawal or lifting of the paw was considered a positive response. The number of positive responses was recorded for each rat over the five trials. Following baseline withdrawal determinations, compounds of formula (I) are administered in an appropriate vehicle, such as hydroxypropyl-β-cyclodextrin (HP β CD), methylcellulose, Methocel, 10% Solutol, or H2O, or the like, by the appropriate route, i.p. or p.o. […] Results are presented as a percent inhibition of […], which was calculated for each subject as [1−(test compound withdrawals/pre-test withdrawals)]×100 and then averaged by treatment.
# Male Sprague Dawley rats [4] = test: Inhibition of Icilin-Induced "Wet-Dog" Shakes in Rats; assay type: in vivo, rat; details: Na salt form; for ED50: Rattus norvegicus, po
# Experimental: Male Sprague Dawley rats (220-450 g, Charles River Labs, n=6-9/treatment) were used to evaluate the ability of selected compounds of the formula (I) to block icilin-induced “wet-dog” shakes (WDS). Compounds of the formula (I) were administered in an appropriate vehicle, such as hydroxypropyl-β-cyclodextrin (HPβCD), methocellulose, 10% Solutol, or H2O, or the like, by the appropriate route, i.p. or p.o., 30-120 minutes before icilin. Icilin was administered in PEG-400 or 10% solutol/H2O, at 1.0 or 3.0 mg/kg, i.p. and spontaneous “wet-dog” shakes were counted 10-20 minutes post-icilin. Results are presented as a percent inhibition of shakes, which was calculated as [1-(test compound WDS count/vehicle WDS count)]×100.
# canine TRPM8 [5] = target: T1, canine TRPM8; test: TRPM8 Patch Clamp Assays (whole-cell, menthol or cold activation); assay type: cell-based; details: cold stimulation
# Experimental: For patch clamp experiments, HEK293 cells are stably transfected with canine TRPM8 and cultured in DMEM supplemented with 10% fetal bovine serum, 100 units/ml penicillin, 100 μg/ml streptomycin and 1 mg/ml G418. Cells are maintained at 37° C. and in 5% CO2.
# The extracellular solution contains (in mM): NaCl, 132; EGTA, 1; KCl, 5.4; MgCl2, 0.8; HEPES, 10; glucose, 10; pH=7.4. Recordings are performed using the conventional whole-cell patch clamp technique, 1-2 days after plating cells onto glass coverslips at densities appropriate for single cell recording. Currents are amplified by a patch clamp amplifier and filtered at 2 kHz (Axopatch 200B, Molecular Devices, Union City, Calif.). Menthol (100 μM) is applied to the cell at 0.5 ml/min via a gravity-fed perfusion system. Recordings involving menthol activation are performed at 22° C.
# In experiments where temperatures are varied, temperature ramps are generated by cooling the perfusate in an in-line cooler (Model SC-20, Warner Instruments, Hamden, Conn.) controlled by a temperature controller (Model CL-100, Warner Instruments). The temperature in the vicinity of the recorded cell is measured with a custom-made miniature thermo-microprobe connected to a monitoring thermometer (Model TH-8, Physitemp, Clifton, N.J.), and sampled using Digidata 1322A and pClamp 9.0 (Molecular Devices), as are the currents concurrently measured in the whole-cell patch clamp mode. The current is continuously sampled (at 100 Hz) at a holding potential of −60 mV.
# Compounds of the formula (I) are diluted from 10 mM DMSO stocks (stored at −20° C.) into an extracellular solution either containing 100 μM menthol or subjected to cooling. Increasing concentrations of a compound are applied to a cell in a cumulative manner and concentration-dependent responses are measured after steady-state activation is achieved by either 100 μM menthol or cooling to 10° C. A saturating concentration of a reference antagonist is applied at the end of an experiment (either in the presence of 100 μM menthol or 10° C. temperature) to establish the baseline from which all the other measurements are subtracted.
# Percentage inhibition by a compound is calculated as follows:
# 100×(1−Icomp/I0); where Icomp and I0 are steady-state current amplitudes in either the presence or absence of a concentration of compounds of the formula (I).
# [6] = 0.5 h, HPbCD, 30 min pre-icilin
# [7] = dose 30 p.o., HPbCD, 30 min pre-icilin
# [8] = dose 30 p.o., HPbCD, 60 min pre-icilin
# [9] = dose 10 p.o., HPbCD, 60 min pre-icilin
# T1 sequence (Q1A7N1 1-1104): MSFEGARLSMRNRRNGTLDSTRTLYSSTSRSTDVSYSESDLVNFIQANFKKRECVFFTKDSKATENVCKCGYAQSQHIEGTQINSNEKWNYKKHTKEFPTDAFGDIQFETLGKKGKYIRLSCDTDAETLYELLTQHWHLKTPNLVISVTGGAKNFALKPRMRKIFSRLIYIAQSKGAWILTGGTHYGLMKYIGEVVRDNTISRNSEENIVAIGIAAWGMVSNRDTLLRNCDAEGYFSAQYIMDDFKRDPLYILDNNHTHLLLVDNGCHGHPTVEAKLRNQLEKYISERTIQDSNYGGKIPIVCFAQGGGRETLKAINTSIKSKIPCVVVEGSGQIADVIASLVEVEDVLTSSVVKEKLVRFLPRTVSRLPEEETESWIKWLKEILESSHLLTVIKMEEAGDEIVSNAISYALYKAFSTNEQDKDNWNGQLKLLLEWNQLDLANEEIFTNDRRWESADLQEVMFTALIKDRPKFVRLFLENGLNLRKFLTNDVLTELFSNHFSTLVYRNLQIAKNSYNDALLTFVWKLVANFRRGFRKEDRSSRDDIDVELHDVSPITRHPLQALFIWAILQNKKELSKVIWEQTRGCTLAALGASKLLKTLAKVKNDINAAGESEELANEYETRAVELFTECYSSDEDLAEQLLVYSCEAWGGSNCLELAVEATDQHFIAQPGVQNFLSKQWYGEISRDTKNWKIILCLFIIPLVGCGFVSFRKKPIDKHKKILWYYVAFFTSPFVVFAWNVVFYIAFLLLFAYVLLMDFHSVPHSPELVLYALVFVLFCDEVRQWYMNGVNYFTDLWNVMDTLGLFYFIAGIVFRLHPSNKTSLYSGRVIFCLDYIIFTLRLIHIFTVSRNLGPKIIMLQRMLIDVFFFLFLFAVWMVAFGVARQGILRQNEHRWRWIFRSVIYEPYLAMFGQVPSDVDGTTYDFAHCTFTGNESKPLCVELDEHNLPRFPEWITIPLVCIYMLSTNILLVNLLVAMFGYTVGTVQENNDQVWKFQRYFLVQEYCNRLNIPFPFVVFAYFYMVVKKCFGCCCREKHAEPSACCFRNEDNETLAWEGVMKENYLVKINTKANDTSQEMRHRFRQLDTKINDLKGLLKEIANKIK
smiles,measurement,setting,value
"Cc1c(N(Cc2ccc(F)c(F)c2)S(=O)(=O)c2cn(C)cn2)sc2ccccc12 [Compound 2, N-(3,4-Difluoro-benzyl)-N-(3-methyl-benzo[b]thiophen-2-yl)-1-methyl-1H-imidazole-4-sulfonamide]",inhibition in vivo at 30 mg/kg,Male Sprague Dawley rats [1],18%
same,IC50,canine TRPM8 [2],16.3 nM
same,inhibition at 0.5 µM,canine TRPM8 [2],99%
"Cc1c(N(Cc2ccc(OC(F)(F)F)cc2)S(=O)(=O)c2cccnc2)sc2ccccc12 [Compound 13, N-(3-Methyl-benzo[b]thiophen-2-yl)-N-(4-trifluoromethoxy-benzyl)-pyridine-3-sulfonamide]",inhibition in vivo at 30 mg/kg,Male Sprague Dawley rats [1],28%
same,IC50,canine TRPM8 [2],3 nM
same,inhibition at 0.5 µM,canine TRPM8 [2],97%
"O=C(O)c1ccc(S(=O)(=O)N(CCC(F)(F)F)c2sc3ccccc3c2Br)cc1 [Compound 271, N-(3-Bromo-benzo[b]thiophen-2-yl)-N-(3,3,3-trifluoro-propyl)-4-carboxy-benzenesulfonamide]",inhibition in vivo at 10 mg/kg,"Male Sprague Dawley rats [3]; Rattus norvegicus, po, 1 h, 10 mg/kg p.o., HPbCD, pretreatment 1 hr, read-out: Percent Inhibition",24%
same,inhibition in vivo at 100 mg/kg,"Male Sprague Dawley rats [3]; Rattus norvegicus, po, 1 h, 100 mg/kg p.o., HPbCD, pretreatment 1 hr, read-out: Percent Inhibition",56%
same,inhibition at 0.2 µM,canine TRPM8 [2],98%
same,ED50,"Male Sprague Dawley rats [4]; 0.5 h, Water, 30 min pre-icilin",5.7 mg/kg
"CCCCN(c1sc2ccccc2c1Br)S(=O)(=O)c1ccc(C(=O)O)cc1 [Compound 272, N-(3-Bromo-benzo[b]thiophen-2-yl)-N-(butyl)-4-carboxy-benzenesulfonamide]",inhibition in vivo at 30 mg/kg,"Male Sprague Dawley rats [3]; Rattus norvegicus, po, 1 h, HPbCD, pretreatment 1 hr, read-out: Percent Inhibition",31%
same,IC50,canine TRPM8 [2],6.2 nM
same,inhibition at 0.2 µM,canine TRPM8 [2],97%
same,ED50,Male Sprague Dawley rats [4]; [6],22 mg/kg
"O=C(O)c1ccc(S(=O)(=O)N(CC2CC2)c2sc3ccccc3c2Br)cc1 [Compound 273, N-(3-Bromo-benzo[b]thiophen-2-yl)-N-(cyclopropylmethyl)-4-carboxy-benzenesulfonamide]",inhibition in vivo at 30 mg/kg,"Male Sprague Dawley rats [3]; Rattus norvegicus, po, 0.5 h, HPbCD, pretreatment 0.5 hr, read-out: Percent Inhibition",49%
same,IC50,canine TRPM8 [2],18 nM
same,inhibition at 0.2 µM,canine TRPM8 [2],96%
same,ED50,Male Sprague Dawley rats [4]; [6],53 mg/kg
"CCS(=O)(=O)N(CCN1CCOCC1)c1sc2ccccc2c1C(C)O (stereo not drawn) [Compound 284, N-(3-(1-Hydroxyethyl)benzo[b]thiophen-2-yl)-N-(2-morpholinoethyl)-ethanesulfonamide]",inhibition at 0.2 µM,canine TRPM8 [2],15%
same,IC50,canine TRPM8 [5],8 nM
same,inhibition at 0.003 µM,canine TRPM8 [5]; 0.003 μM,24%
same,inhibition at 0.01 µM,canine TRPM8 [5]; 0.01 μM,71%
"O=C(O)c1ccc(S(=O)(=O)N(CCCCC(F)(F)F)c2sc3ccccc3c2Br)cc1 [Compound 395, N-(3-Bromo-benzo[b]thiophen-2-yl)-N-(5,5,5-trifluoro-pentyl)-4-carboxy-benzenesulfonamide]",inhibition in vivo at 30 mg/kg,"Male Sprague Dawley rats [3]; Rattus norvegicus, po, 2 h, Water, pretreatment 2 hr, read-out: Percent Inhibition",23%
same,IC50,canine TRPM8 [2],3 nM
same,inhibition at 0.2 µM,canine TRPM8 [2],101%
same,ED50,"Male Sprague Dawley rats [4]; 1 h, Water, 60 min pre-icilin",7.6 mg/kg
"CCCCN(c1sc2ccccc2c1C)S(=O)(=O)c1ccc(C(=O)[O-])cc1.[Na+] [Compound 398, Sodium, N-(Butyl)-N-(3-methylbenzo[b]thiophen-2-yl)-4-carboxy-benzenesulfonamide]",IC50,canine TRPM8 [2],6 nM
same,% Inh @ 0.2 (μM),canine TRPM8 [2],101%
same,% Inhibition,Male Sprague Dawley rats [4]; [7],7%
"Cc1c(N(CCC2CC2)S(=O)(=O)c2ccc(C(=O)[O-])cc2)sc2ccccc12.[Na+] [Compound 400, Sodium, N-(2-Cyclopropylethyl)-N-(3-methylbenzo[b]thiophen-2-yl)-4-carboxy-benzenesulfonamide]",Percent Inhibition,"Male Sprague Dawley rats [3]; Water, pretreatment 1 hr",40%
same,Percent Inhibition,"Male Sprague Dawley rats [3]; Water, pretreatment 3 hr",25%
same,IC50,canine TRPM8 [2],5 nM
same,% Inh @ 0.2 (μM),canine TRPM8 [2],102%
same,% Inhibition,Male Sprague Dawley rats [4]; [7],84%
"Cc1c(N(CCC(F)(F)F)S(=O)(=O)c2ccc(C(=O)[O-])cc2)sc2ccccc12.[Na+] [Compound 409, Sodium, N-(3-Methylbenzo[b]thiophen-2-yl)-N-(3,3,3-trifluoro-propyl)-4-carboxy-benzenesulfonamide]",IC50,canine TRPM8 [2],10 nM
same,% Inh @ 0.2 (μM),canine TRPM8 [2],101%
same,% Inhibition,Male Sprague Dawley rats [4]; [7],16%
O=S(=O)(c1ccc(-c2nnn[nH]2)cc1)N(CCCC(F)(F)F)c1sc2ccccc2c1Br [Compound 429],IC50,canine TRPM8 [2],17 nM
same,% Inh @ 0.2 (μM),canine TRPM8 [2],93%
same,% Inhibition,Male Sprague Dawley rats [4]; [7],41%
same,% Inhibition,Male Sprague Dawley rats [4]; [8],36%
O=C(O)c1ccc(S(=O)(=O)N(CCC2CC2)c2sc3ccccc3c2Cl)cc1 [Compound 479],IC50,canine TRPM8 [2],8 nM
same,% Inh @ 0.2 (μM),canine TRPM8 [2],100%
same,% Inhibition,Male Sprague Dawley rats [4]; [8],77%
"CC(C)(O)c1c(N(CCC(F)(F)F)S(=O)(=O)c2ccc(C(=O)[O-])cc2)sc2ccccc12.[Na+] [Compound 505, Sodium, N-(3-(1-Hydroxy-1-methyl-ethyl)-benzo[b]thiophen-2-yl)-N-(3,3,3-trifluoro-propyl)-4-carboxy-benzenesulfonamide]",Percent Inhibition,"Male Sprague Dawley rats [3]; HPbCD, pretreatment 1 hr",11%
same,IC50,canine TRPM8 [2],24 nM
same,% Inh @ 0.2 (μM),canine TRPM8 [2],98%
same,% Inhibition,Male Sprague Dawley rats [4]; [8],72%
"CC(C)(O)c1c(N(CCC2CC2)S(=O)(=O)c2ccc(C(=O)[O-])cc2)sc2ccccc12.[Na+] [Compound 657, Sodium, N-(2-Cyclopropyl-ethyl)-N-(3-(1-hydroxy-1-methyl-ethyl)-benzo[b]thiophen-2-yl)-4-carboxy-benzenesulfonamide]",IC50,canine TRPM8 [2],7.5 nM
same,% Inh @ 0.2 (μM),canine TRPM8 [2],101%
same,% Inhibition,Male Sprague Dawley rats [4]; [9],32%
"CC(C)(O)c1c(N(CCCCC(F)(F)F)S(=O)(=O)c2ccc(C(=O)[O-])cc2)sc2ccccc12.[Na+] [Compound 658, Sodium, N-(3-(1-Hydroxy-1-methyl-ethyl)-benzo[b]thiophen-2-yl)-N-(5,5,5-trifluoro-pentyl)-4-carboxy-benzenesulfonamide]",IC50,canine TRPM8 [2],4.3 nM
same,% Inh @ 0.2 (μM),canine TRPM8 [2],101%
same,% Inhibition,Male Sprague Dawley rats [4]; [9],63%
